Data reported in PubChem BioAssay (NCI).
Several values for one entry are separate records, joined by “and”; a condition that tells them apart may be missing. Equal entries are not always repeated.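 Method: 48-hour compound exposure of cells in 96-well plates, five concentrations, linear interpolation of endpoints. GI50 is the concentration that inhibits growth by half. TGI marks complete inhibition of growth.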

Columns and labels:
Experiment in all cases: NCI-60 cell line screen, 48 h
A498 renal = system: A498 renal
ACHN renal = system: ACHN renal
CAKI-1 renal = system: CAKI-1 renal
HOP-92 NSCLC = system: HOP-92 NSCLC
IGROV1 ovarian = system: IGROV1 ovarian
MDA-N = system: MDA-N
NCI/ADR-RES ovarian = system: NCI/ADR-RES ovarian
SF-295 CNS = system: SF-295 CNS
SK-MEL-5 melanoma = system: SK-MEL-5 melanoma
SW-620 colon = system: SW-620 colon

SMILES	TGI (A498 renal) [µM]	TGI (ACHN renal) [µM]	TGI (CAKI-1 renal) [µM]	TGI (HOP-92 NSCLC)	TGI (IGROV1 ovarian)	TGI (MDA-N)	TGI (NCI/ADR-RES ovarian) [µM]	TGI (SF-295 CNS) [µM]	TGI (SK-MEL-5 melanoma) [µM]	TGI (SW-620 colon) [µM]	GI50 (HOP-92 NSCLC)	GI50 (IGROV1 ovarian)
CC(=N\N=C\c1ccccn1)/C(C)=N/N=C/c1ccccn1	> 100	> 100	> 100	> 100 µM	> 100 µM	> 100 µM	> 100	> 100	> 100	> 100	–	–
COC(=O)Nc1nc2ccc(NS(=O)(=O)c3ccc(F)cc3)cc2[nH]1	> 100	> 100	> 100	> 100 µM	9.93 µM	7.45 µM	54.2	70.4	> 100	> 100	–	–
C[N+](C)(N)Cc1csc(-c2ccc(Cl)cc2)n1	> 100	> 100	> 100	> 100 µM	> 100 µM	> 100 µM	> 100	> 100	> 100	> 100	–	–
O=C(O)C1(CC(CCCN2CCCCC2)c2ccccc2)CCCC1 (configuration not stated)	> 100	> 100	> 100	> 100 µM	> 100 µM	> 100 µM	> 100	> 100	> 100	> 100	–	–
CC[C@@]1(O)C(=O)OCc2c1cc1n(c2=O)Cc2c-1nc1ccccc1c2/C=N\NC(=O)C(N)=O	9.81	0.814	17.5	12.9 µM	49.4 µM	> 100 µM	> 73.5	14.8	2.96	> 100	–	–
COc1ccc(-c2c(C(C)=O)c(-c3ccccc3)n(C3OC(COC(C)=O)C(OC(C)=O)C(OC(C)=O)C3OC(C)=O)c(=S)c2C#N)cc1O (configuration not stated)	> 100	> 100	> 100	82.5 µM and > 100 µM	35.6 µM and > 100 µM	81.5 µM and > 100 µM	> 100	> 100	> 100	> 100	43.9 µM and 17.3 µM	12.4 µM and 38.2 µM
COc1cc(C(c2cc(OC)c(OC)c(OC)c2)N2C(=O)CCC2C(=O)O)cc(OC)c1OC (configuration not stated)	> 100	> 100	> 100	> 100 µM	> 100 µM	> 100 µM	> 100	> 100	> 100	> 100	–	–
CCOC(=S)SC/C(=N\OC(C)(C)OC)c1ccccc1	> 100	> 100	> 100	63.8 µM	> 100 µM	> 100 µM	> 100	> 100	> 100	> 100	–	–
O=C(Nc1ccc(Cl)cc1)c1cc(S(=O)(=O)NC2=NC(c3ccccc3)c3cc(Cl)ccc3N2)c(SSc2cc(Cl)c(C(=O)Nc3ccc(Cl)cc3)cc2S(=O)(=O)NC2=NC(c3ccccc3)c3cc(Cl)ccc3N2)cc1Cl (configuration not stated)	> 100	> 100	> 100	> 100 µM	> 100 µM	> 100 µM	> 100	> 100	> 100	> 100	–	–
CCOc1ccc(-n2c(=O)n3c(Nc4ccc(Cl)cc4)nc4c(c(=O)n(C)c(=O)n4C)n3c2=O)cc1	39.4	> 100	> 100	48.2 µM	> 100 µM	> 100 µM	> 100	> 100	36	99.2	–	–
COc1cc(C(=O)OC2CC(C)=CC[C@@]3(C)CC[C@](O)(C(C)C)C23)ccc1O (some centres not stated)	33.7	32.6	30.4	30.5 µM	33.4 µM	35.2 µM	37.6	51.9	32.8	55.3	–	–
COc1ccc(CCN2CCOCC2)cc1	> 100	> 100	> 100	> 100 µM	> 100 µM	> 100 µM	> 100	> 100	> 100	> 100	–	–
O=C1O[C@H](COC(=O)c2ccccc2)[C@@H](OC(=O)c2ccccc2)C=C1OC(=O)c1ccccc1	> 100	35.3	51.2	42.8 µM	57.2 µM	> 100 µM	38.8	34.8	36.2	35.9	–	–
CCOC(=O)c1[nH]n(-c2ccccc2)c(=O)c1C=NC(=S)C(N)=S	> 100	64.8	> 100	> 100 µM	> 100 µM	> 100 µM	> 100	> 100	40.3	> 100	–	–
